Experiments:
HCT116 (colon) = assay: In vitro cytotoxic activity (MTT) assay, HCT116; assay type: cell-based; details: Homo sapiens, HCT-116; HCT116 cells, exposed for 96 hours; read-out: IC50, 50% inhibition of cell proliferation, HCT116 (colon)
Experimental: (§1) Compounds 1-16 were screened for their in vitro cytotoxic activity utilizing a 3-(4,5-dimethyl-thiazol-2-yl)-2,5-diphenyltetrazolium bromide (MTT) assay against selected cancer human cell lines consisting of PC3 (prostate), HCT116 (colon), A375 (melanoma), H1299 (lung), MIAPaCa-2 (pancreas), HL60 (leukemia), MCF7 (breast), MDA-MB-231 (breast) (T. Mosmann, J. Immunol. Meth., 1983, 65, 55-63). The cells were cultured at 37° C. in RMPI1640 medium supplemented with 10% fetal bovine serum, 50 IU/mL penicillin, and 50 μg/mL streptomycin in a 5% CO2 incubator. All cells were sub-cultured 3 times/week by trypsinisation. Viable cells were seeded and allowed to adhere for 12 h before a test drug was added in 96-well plates at an initial density of 1.0×10^5 cells/mL. Tumour cell lines were separately exposed to various concentrations of the tested compounds followed by incubation at a temperature of 37° C. during 96 h inside a medium of fresh RMPI 1640. Cells were subsequently incubated at 37° C. using MTT at 0.5 mg/mL during 4 h. After removal of supernatant, formazan crystals were dissolved in isopropanol and the optical density was measured at 570 nm. CX-4945 was used as a positive control.

A375 (melanoma) = assay: In vitro cytotoxic activity (MTT) assay, A375; assay type: cell-based; details: Homo sapiens, A-375; A375 cells, exposed for 96 hours; read-out: IC50, 50% inhibition of cell proliferation, A375 (melanoma)
Experimental: as §1

HL60 (leukemia) = assay: In vitro cytotoxic activity (MTT) assay, HL60; assay type: cell-based; details: Homo sapiens, HL-60; HL60 cells, exposed for 96 hours; read-out: IC50, 50% inhibition of cell proliferation, HL60 (leukemia)
Experimental: as §1

PC3 (prostate) = assay: In vitro cytotoxic activity (MTT) assay, PC3; assay type: cell-based; details: Homo sapiens, PC-3; PC3 cells, exposed for 96 hours; read-out: IC50, 50% inhibition of cell proliferation, PC3 (prostate)
Experimental: as §1

MIAPaCa-2 (pancreas) = assay: In vitro cytotoxic activity (MTT) assay, MIAPaCa-2; assay type: cell-based; details: Homo sapiens, MIA PaCa-2; MIAPaCa-2 cells, exposed for 96 hours; read-out: IC50, 50% inhibition of cell proliferation, MIAPaCa-2 (pancreas)
Experimental: as §1

MCF7 (breast) = assay: In vitro cytotoxic activity (MTT) assay, MCF7; assay type: cell-based; details: Homo sapiens; MCF7 cells, exposed for 96 hours; read-out: IC50, 50% inhibition of cell proliferation, MCF7 (breast)
Experimental: as §1

MDA-MB-231 (breast) = assay: In vitro cytotoxic activity (MTT) assay, MDA-MB-231; assay type: cell-based; details: Homo sapiens; MDA-MB-231 cells, exposed for 96 hours; read-out: IC50, 50% inhibition of cell proliferation, MDA-MB-231 (breast)
Experimental: as §1

H1299 (lung) = assay: In vitro cytotoxic activity (MTT) assay, H1299; assay type: cell-based; details: Homo sapiens, NCI-H1299; H1299 cells, exposed for 96 hours; read-out: IC50, 50% inhibition of cell proliferation, H1299 (lung)
Experimental: as §1

[1] = target: T1, recombinant human CK2 (RRββ-holoenzyme) (Homo sapiens, UniProt P68400); assay: CK2 Kinase Assay (radiometric, [γ-33P]ATP); assay type: biochemical; details: final ATP concentration 15 μM, 10 min at 30° C.; read-out: protein kinase CK2 IC50
T1 construct: purchased Millipore
Experimental: CK2 Kinase Assay was conducted using the protocol as described in Pierre F. et al; J. Med. Chem. 2011, 54, 635-654. The tested compounds in aqueous solution were added at a volume of 10 μL to a reaction mixture comprising 10 μL of assay dilution buffer (ADB; 20 mM MOPS, pH 7.2, 25 mM β-glycerol phosphate, 5 mM EGTA, 1 mM sodium orthovanadate, and 1 mM dithiothreitol), 10 μL of substrate peptide (RRRDDDSDDD, dissolved in ADB at a concentration of 1 mM), 10 μL of recombinant human CK2 (RRββ-holoenzyme, 25 ng dissolved in ADB; Millipore). Reactions were initiated by the addition of 10 μL of ATP solution (90% 75 mMMgCl2, 75 μM ATP (final ATP concentration: 15 μM) dissolved in ADB; 10% [γ-33P] ATP (stock 1 mCi/100 μL; 3000 Ci/mmol (Perkin-Elmer) and maintained for 10 min at 30° C. The reactions were quenched with 100 μL of 0.75% phosphoric acid and then transferred to and filtered through a phosphor cellulose filter plate (Millipore). After washing each well five times with 0.75% phosphoric acid, the plate was dried under vacuum for 5 min and, following the addition of 15 μL of scintillation fluid to each well, the residual radioactivity was measured using a Wallac luminescence counter. The ICso values were derived from eight concentrations of test inhibitors.

T1 sequence (P68400 whole entry): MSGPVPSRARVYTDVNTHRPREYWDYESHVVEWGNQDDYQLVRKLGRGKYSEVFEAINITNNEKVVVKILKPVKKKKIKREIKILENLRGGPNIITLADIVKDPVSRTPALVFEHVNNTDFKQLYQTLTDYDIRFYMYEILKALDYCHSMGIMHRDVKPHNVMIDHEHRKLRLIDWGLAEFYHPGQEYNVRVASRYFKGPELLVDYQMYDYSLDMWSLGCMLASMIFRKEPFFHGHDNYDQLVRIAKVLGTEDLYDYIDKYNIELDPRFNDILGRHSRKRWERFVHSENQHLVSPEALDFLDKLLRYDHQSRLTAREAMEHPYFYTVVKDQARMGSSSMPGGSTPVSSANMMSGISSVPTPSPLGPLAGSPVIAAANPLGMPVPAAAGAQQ
T1 sequence (P67870 whole entry partner): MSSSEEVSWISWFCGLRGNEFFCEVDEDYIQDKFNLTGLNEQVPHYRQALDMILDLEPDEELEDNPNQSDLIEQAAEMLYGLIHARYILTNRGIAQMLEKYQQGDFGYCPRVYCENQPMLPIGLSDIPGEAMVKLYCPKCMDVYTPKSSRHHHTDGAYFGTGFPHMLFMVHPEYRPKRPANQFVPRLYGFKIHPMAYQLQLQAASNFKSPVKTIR

IC50 [1]: 0.035 µM
Compound: O=C(O)c1cc2nc(Nc3cccc(Cl)c3)c3cnccc3c2[nH]1 [Compound 1, 5-((3-chlorophenyl)amino)-1H-pyrrolo[3,2-c][2,7]naphthyridine-2-carboxylic Acid]
IC50 (HCT116 (colon)): 1.3 µM
IC50 (A375 (melanoma)): 2.5 µM
IC50 (HL60 (leukemia)): 2.6 µM
IC50 (PC3 (prostate)): 2.1 µM
IC50 (MIAPaCa-2 (pancreas)): 1.1 µM
IC50 (MCF7 (breast)): 3.9 µM
IC50 (MDA-MB-231 (breast)): 3.3 µM
IC50 (H1299 (lung)): 1.2 µM

Source: US11891377B1, “Pyrrolo[3,2-c][2,7]naphthyridine-2-carboxylic acid compounds as CK2 inhibitors” (KING FAISAL UNIVERSITY, priority 2023, dated 2024)
